Laboratory results taken from US8431597B2, “Benzimidazole derivatives” (Pfizer Inc., priority 2007, dated 2013).
Counter-ions that a name gives are not always drawn.

Biological target: T1, Smoothened (SMO) (Mus musculus, UniProt P56726)
T1 construct: C3H10T1/2 cells (ATCC #CCL-226) were split and seeded; endogenous in cells; host or cells: C3H10T1/2 (ATCC #CCL-226)
Test: Smoothened (SMO)/Sonic Hedgehog (SHh) Transient Transcriptional Activation Assay (Gli-luciferase reporter in C3H10T1/2 cells)
Type: cell-based, murine
Settings: C3H 10T1/2, 2 μM compound; transfected C3H10T1/2 cells, recombinant human SHh 250 ng/mL, 20 hours, luciferase readout; read-out: SMO CELL % INHIBITION @ 2 μM
Method in brief: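 C3H10T1/2 cells transiently transfected with a murine Gli-responsive firefly luciferase reporter plus pEGFP were serum-starved 20 h in 0.5% calf serum. Compound (2 μM to 2 nM final) was added with recombinant human SHh at 250 ng/mL final for 20 h at 37 °C. Read-out was Dual-Glo luminescence.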

T1 sequence (P56726 33-793): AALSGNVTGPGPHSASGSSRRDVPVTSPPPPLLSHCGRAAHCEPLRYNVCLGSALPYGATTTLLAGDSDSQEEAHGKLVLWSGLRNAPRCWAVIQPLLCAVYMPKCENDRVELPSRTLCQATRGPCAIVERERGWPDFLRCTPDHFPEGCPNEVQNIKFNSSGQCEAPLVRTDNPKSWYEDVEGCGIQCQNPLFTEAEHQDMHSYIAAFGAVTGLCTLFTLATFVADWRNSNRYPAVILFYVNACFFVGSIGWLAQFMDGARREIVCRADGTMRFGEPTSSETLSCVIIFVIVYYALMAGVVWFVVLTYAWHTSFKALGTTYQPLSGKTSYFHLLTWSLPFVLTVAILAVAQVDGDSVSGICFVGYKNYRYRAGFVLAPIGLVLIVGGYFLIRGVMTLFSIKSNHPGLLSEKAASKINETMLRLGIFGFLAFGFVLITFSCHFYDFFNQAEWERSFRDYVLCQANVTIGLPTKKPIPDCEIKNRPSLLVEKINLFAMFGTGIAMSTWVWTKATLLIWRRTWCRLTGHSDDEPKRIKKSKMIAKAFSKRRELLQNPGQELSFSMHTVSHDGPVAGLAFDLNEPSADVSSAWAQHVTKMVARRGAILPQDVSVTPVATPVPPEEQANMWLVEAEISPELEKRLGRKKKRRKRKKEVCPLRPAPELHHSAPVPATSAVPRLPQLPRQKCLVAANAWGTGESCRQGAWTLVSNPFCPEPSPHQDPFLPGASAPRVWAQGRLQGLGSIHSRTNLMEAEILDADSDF

inhibition at 2 µM | Structure (SMILES)
93.1% | CN1CC[C@@H](NC(=O)NC2CCCC2)C[C@@H]1c1nc2ccccc2[nH]1 [Example 85, 1-[(2R,4R)-2-(1H-benzimidazol-2-yl)-1-methylpiperidin-4-yl]-3-cyclopentylurea hydrochloride]
95% | CN1CC[C@@H](NC(=O)c2cc3c(cc2Cl)OCCO3)C[C@@H]1c1nc2cc(Cl)ccc2[nH]1 [Example 148, 7-chloro-N-[(2R,4R)-2-(5-chloro-1H-benzimidazol-2-yl)-1-methylpiperidin-4-yl]-2,3-dihydro-1,4-benzodioxine-6-carboxamide triflouroacetate]
78.7% | CN1CC[C@@H](NC(=O)N2CCOCC2)C[C@@H]1c1nc2ccccc2[nH]1 [Example 95, N-[(2R,4R)-2-(1H-benzimidazol-2-yl)-1-methylpiperidin-4-yl]morpholine-4-carboxamide hydrochloride]
87.9% | Cc1nc(C(F)(F)F)ccc1C(=O)N[C@@H]1CCN(C)[C@@H](c2nc3ccccc3[nH]2)C1 [Example 91, N-[(2R,4R)-2-(1H-benzimidazol-2-yl)-1-methylpiperidin-4-yl]-2-methyl-6-(trifluoromethyl)nicotinamide hydrochloride]
107% | CN1CC[C@@H](NC(=S)c2ccc3c(c2)OCCO3)C[C@@H]1c1nc2ccccc2[nH]1 [Example 140, N-[(2R,4R)-2-(1H-benzimidazol-2-yl)-1-methylpiperidin-4-yl]-2,3-dihydro-1,4-benzodioxine-6-carbothioamide hydrochloride]
106% | COc1ccc2[nH]c([C@H]3C[C@H](NC(=O)Nc4ccc(OC)nc4)CCN3C)nc2c1 [Example 136, 1-[(2R,4R)-2-(5-methoxy-1H-benzimidazol-2-yl)-1-methylpiperidin-4-y)]-3-(6-methoxypyridin-3-yl)urea hydrochloride]
102% | Cc1ccc(NC(=O)N[C@@H]2CCN(C)[C@@H](c3nc4cc(C(F)(F)F)ccc4[nH]3)C2)cn1 [Example 128, 1-(6-methylpyridin-3-yl)-3-{(2R,4R)-1-methyl-2-[5-(trifluoromethyl)-1H-benzimidazol-2-yl]piperidin-4-yl}urea hydrochloride]
107% | COc1ccc2[nH]c([C@H]3C[C@H](NC(=O)Nc4ccc(C)nc4)CCN3C3CCC3)nc2c1 [Example 153, 1-[(2R,4R)-1-cyclobutyl-2-(5-methoxy-1H-benzimidazol-2-y1)piperidin-4-yl]-3-(6-methylpyridin-3-yl)urea triflouroacetate]
85.3% | CN1CC[C@@H](NC(=O)c2ccc3c(c2F)OCCO3)C[C@@H]1c1nc2ccccc2[nH]1 [Example 141, N-[(2R,4R)-2-(1H-benzimidazol-2-yl)-1-methylpiperidin-4-yl]-5-fluoro-2,3-dihydro-1,4-benzodioxine-6-carboxamide trifluoroacetate]
102% | O=C(N[C@@H]1CCN(C2CC2)[C@@H](c2nc3ccccc3[nH]2)C1)c1ccc2c(c1)OCCO2 [Example 125, N-[(2R,4R)-2-(1H-benzimidazol-2-yl)-1-cyclopropylpiperidin-4-yl]-2,3-dihydro-1,4-benzodioxine-6-carboxamide hydrochloride]
87.9% | CN1CC[C@@H](NC(=O)Nc2ccc(-c3ccccc3)s2)C[C@@H]1c1nc2ccccc2[nH]1 [Example 90, 1-[(2R,4R)-2-(1H-benzimidazol-2-yl)-1-methylpiperidin-4-yl]-3-(5-phenyl-2-thienyl)urea hydrochloride]
72% | O=C(N[C@@H]1CCN[C@@H](c2nc3ccccc3[nH]2)C1)c1ccc2c(c1)OCCO2 [Example 99, N-[(2R,4R)-2-(1H-benzimidazol-2-yl)piperidin-4-yl]-2,3-dihydro-1,4-benzodioxine-6-carboxamide trifluoroacetate]
106% | Cc1ccc2[nH]c([C@H]3C[C@H](NC(=O)Nc4ccc(C)nc4)CCN3C)nc2c1 [Example 130, 1-[(2R,4R)-1-methyl-2-(5-methyl-1H-benzimidazol-2-yl)piperidin-4-yl]-3-(6-methylpyridin-3-yl)urea hydrochloride]
85.2% | CC(C)N1C[C@@H](NC(=O)Nc2ccc(Cl)c(C(F)(F)F)c2)C[C@H]1c1nc2ccccc2[nH]1 [Example 93, 1-[(3S,5S)-5-(1H-benzimidazol-2-yl)-1-isopropyl-pyrrolidin-3-yl]-3-[4-chloro-3-(trifluoromethyl)phenyl]urea]
110% | Cc1ccc(NC(=O)N[C@@H]2CCN(C)[C@@H](c3nc4ccc(Cl)cc4[nH]3)C2)cn1 [Example 126, 1-[(2R,4R)-2-(6-chloro-1H-benzimidazol-2-yl)-1-methylpiperidin-4-yl]-3-(6-methylpyridin-3-yl)urea hydrochloride]
107% | COc1ccc2[nH]c([C@H]3C[C@H](NC(=O)c4ccc5c(c4Cl)OCCO5)CCN3C)nc2c1 [Example 146, 5-chloro-N-[(2R,4R)-2-(5-methoxy-1H-benzimidazol-2-yl)-1-methylpiperidin-4-yl]-2,3-dihydro-1,4-benzodioxine-6-carboxamide triflouroacetate]
103% | Cc1ccc(NC(=O)N[C@@H]2CCN(C)[C@@H](c3nc4cc(C#N)ccc4[nH]3)C2)cn1 [Example 127, 1-[(2R,4R)-2-(5-cyano-1H-benzimidazol-2-yl)-1-methylpiperidin-4-yl]-3-(6-methylpyridin-3-yl)urea hydrochloride]
95.4% | CC(C)N1C[C@H](NC(=O)Nc2ccc(Cl)c(C(F)(F)F)c2)C[C@H]1c1nc2ccccc2[nH]1 [Example 84, 1-[(3R,5S)-5-(1H-benzimidazol-2-yl)-1-isopropyl-pyrrolidin-3-yl]-3-[4-chloro-3-(trifluoromethyl)phenyl]urea]

Continued, molecule first:

Structure (SMILES) | inhibition at 2 µM
CN1CC[C@@H](NC(=O)c2ccc3c(c2)OCCO3)C[C@@H]1c1nc2ccc(C#N)cc2[nH]1 [Example 63, N-[(2R,4R)-2-(6-cyano-1H-benzimidazol-2-yl)-1-methylpiperidin-4-yl]-2,3-dihydro-1,4-benzodioxine-6-carboxamide hydrochloride] | 104%
Cc1cc2nc([C@H]3C[C@H](NC(=O)Nc4ccc(C(F)(F)F)nc4)CCN3C)[nH]c2cc1C [Example 77, 1-[(2R,4R)-2-(5,6-dimethyl-1H-benzimidazol-2-yl)-1-methylpiperidin-4-yl]-3-[6-(trifluoromethyl)pyridin-3-yl]urea hydrochloride] | 100%
COc1ccc2nc([C@@H]3C[C@H](NC(=O)Nc4ccc(Cl)c(C(F)(F)F)c4)CN3C)[nH]c2c1 [Example 25, 1-[4-chloro-3-(trifluoromethyl)phenyl]-3-[(3S,5S)-5-(6-methoxy-1H-benzimidazol-2-yl)-1-methylpyrrolidin-3-yl]urea] | 105%
Cc1cncc(NC(=O)N[C@@H]2CCN(C)[C@@H](c3nc4ccccc4[nH]3)C2)c1 [Example 69, 1-[(2R,4R)-2-(1H-benzimidazol-2-yl)-1-methylpiperidin-4-yl]-3-(5-methylpyridin-3-yl)urea hydrochloride] | 102%
CN1CC[C@@H](NC(=O)Nc2ccc(Cl)c(C(F)(F)F)c2)C[C@@H]1c1nc2ccccc2[nH]1 [Example 26, 1-[(2R,4R)-2-(1H-benzimidazol-2-yl)-1-methylpiperidin-4-yl]-3-[4-chloro-3-(trifluoromethyl)phenyl]urea hydrochloride] | 109%
CCN1CC[C@@H](NC(=O)Nc2ccc(C#N)cc2)C[C@@H]1c1nc2ccccc2[nH]1 [Example 46, 1-[(2R,4R)-2-(1H-benzimidazol-2-yl)-1-ethylpiperidin-4-yl]-3-(4-cyanophenyl)urea] | 105%
CN1CC[C@@H](NC(=O)c2ccc3c(c2)OCCO3)C[C@@H]1c1nc2ccc(F)cc2[nH]1 [Example 45, N-[(2R,4R)-2-(6-fluoro-1H-benzimidazol-2-yl)-1-methylpiperidin-4-yl]-2,3-dihydro-1,4-benzodioxine-6-carboxamide hydrochloride] | 105%
Cc1ccc2[nH]c([C@H]3C[C@H](NC(=O)Nc4ccc(C(F)(F)F)nc4)CCN3C)nc2c1 [Example 65, 1-[(2R,4R)-1-methyl-2-(5-methyl-1H-benzimidazol-2-yl)piperidin-4-yl]-3-[6-(trifluoromethyl)pyridin-3-yl]urea hydrochloride] | 103%
CN1CC[C@@H](NC(=O)Nc2ccc(C#N)cn2)C[C@@H]1c1nc2ccccc2[nH]1 [Example 43, 1-[(2R,4R)-2-(1H-benzimidazol-2-yl)-1-methylpiperidin-4-yl]-3-(5-cyanopyridin-2-yl)urea hydrochloride] | 106%
N#Cc1ccc(NC(=O)N[C@@H]2CCN(C3CCC3)[C@@H](c3nc4ccccc4[nH]3)C2)cc1 [Example 70, 1-[(2R,4R)-2-(1H-benzimidazol-2-yl)-1-cyclobutyl-piperidin-4-yl]-3-(4-cyanophenyl)urea] | 101%
O=C(Nc1ccc(Cl)c(C(F)(F)F)c1)N[C@@H]1CN[C@H](c2nc3ccc(F)cc3[nH]2)C1 [Example 13, 1-[4-chloro-3-(trifluoromethyl)phenyl]-3-[(3S,5S)-5-(6-fluoro-1H-benzimidazol-2-yl)pyrrolidin-3-yl]urea] | 84.2%
Cc1cc2nc([C@H]3C[C@H](NC(=O)Nc4ccc(C#N)cc4)CCN3C)[nH]c2cc1C [Example 52, 1-(4-cyanophenyl)-3-[(2R,4R)-2-(5,6-dimethyl-1H-benzimidazol-2-yl)-1-methylpiperidin-4-yl]urea hydrochloride] | 105%
CN1CC[C@@H](NC(=O)Nc2cc(Cl)cc(Cl)c2)C[C@@H]1c1nc2ccccc2[nH]1 [Example 28, 1-[(2R,4R)-2-(1H-benzimidazol-2-yl)-1-methylpiperidin-4-yl]-3-(3,5-dichlorophenyl)urea hydrochloride] | 108%
